According to patent US8334308B2, “Renin inhibitors” (Merck Sharp & Dohme Corp., priority 2007, dated 2012):

Tests used:
human recombinant renin = biological target: T1, human recombinant renin (Homo sapiens, UniProt P00797); experiment: Inhibition of human recombinant renin (enzymatic in vitro assay, Ang I EIA); type: biochemical; details: human recombinant renin 40 pM, buffer, 37° C. 3 h
T1 sequence (P00797 67-406): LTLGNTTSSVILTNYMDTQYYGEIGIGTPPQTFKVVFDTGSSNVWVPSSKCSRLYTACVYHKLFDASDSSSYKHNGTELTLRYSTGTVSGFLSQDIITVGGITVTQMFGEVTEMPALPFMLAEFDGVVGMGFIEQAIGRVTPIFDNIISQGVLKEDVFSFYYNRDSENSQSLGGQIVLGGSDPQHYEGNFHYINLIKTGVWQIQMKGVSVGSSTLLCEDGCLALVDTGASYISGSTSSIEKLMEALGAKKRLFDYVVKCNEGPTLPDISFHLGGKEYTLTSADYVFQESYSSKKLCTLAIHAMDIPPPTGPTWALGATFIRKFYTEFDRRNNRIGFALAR
Experimental: Inhibition of Human Recombinant Renin
(§1) The enzymatic in vitro assay was performed in 384-well polypropylene plates (Nunc). The assay buffer consisted of PBS (Gibco BRL) including 1 mM EDTA and 0.1% BSA. The reaction mixture were composed of 47.5 μL per well of an enzyme mix and 2.5 μL of renin inhibitors in DMSO. The enzyme mix was premixed at 4° C. and consists of the following components: […]
human recombinant renin (40 pM) synthetic human angiotensin(1-14) (0.5 μM) hydroxyquinoline sulfate (1 mM)
The mixtures were then incubated at 37° C. for 3 h. The enzyme reaction was stopped by placing the reaction plate on wet ice.
(§2) To determine the enzymatic activity and its inhibition, the accumulated Ang I was detected by an enzyme immunoassay (EIA) in 384-well plates (Nunc). 5 μL of the reaction mixture or standards were transferred to immuno plates which were previously coated with a covalent complex of Ang I and bovine serum albumin (Ang I-BSA). 75 μL of Ang I-antibodies in assay buffer above including 0.01% Tween 20 were added and the plates were incubated at 4° C. overnight.
An alternative protocol could be used by stopping the enzymatic reaction with 0.02N final concentration of HCl. 5 μL of the reaction mixture or standards were transferred to immuno plates and 75 μL of Ang I-antibodies in assay buffer above including 0.01% Tween 20 were added and the plates were incubate at RT for 4 h.

renin in human plasma = biological target: T2, renin in human plasma (Homo sapiens, UniProt P00797); experiment: Inhibition of renin in human plasma (enzymatic in vitro assay, Ang I EIA); type: biochemical; details: human plasma from 10 normal donors, 37° C. 2 h
T2 construct: host or cells: recombinant renin of unstated origin added to human plasma from 10 normal donors
T2 sequence (P00797 67-406): T1 sequence (P00797 67-406)
Experimental: Inhibition of Renin in Human Plasma
as §1, with “was” for “were”, “80 μL,” for “47.5 μL”, “human plasma, enzyme, Ang I-antibodiesmix” for “an enzyme mix”, “5” for “2.5”, “human plasma” for “enzyme”, “of” for “of the following components:”
human plasma from 10 normal donors human recombinant renin (3 μM)
The mixtures were then incubated at 37° C. for 2 h.
as §2, with “10” for “5”, “70” for “75”, “μL” for “μL of Ang I-antibodies in”, “buffer” for “buffer above including 0.01% Tween 20”

SMILES	IC50 (human recombinant renin)	IC50 (renin in human plasma)
Cc1cc(Cl)c(OCCOc2ccc(CC(CN)c3ccc(-c4ccccc4Cl)cc3F)cc2)c(Cl)c1 (stereo not drawn) [Example 7, 2-(2′-chloro-3-fluorobiphenyl-4-yl)-3-{4-[2-(2,6-dichloro-4-methylphenoxy)ethoxy]phenyl}propan-1-amine]	7 nM	1150 nM
COCCCc1ccccc1-c1cc(C(F)(F)F)c(C(CN)Cc2ccc(OCCOc3c(Cl)cc(C)cc3Cl)cc2)cn1 (stereo not drawn) [Example 11, 3-{4-[2-(2,6-dichloro-4-methylphenoxy)ethoxy]phenyl}-2-[6-[2-(3-methoxypropyl)phenyl]-4-(trifluoromethyl)pyridin-3-yl]propan-1-amine]	0.3 nM	21 nM
COCCc1ccccc1-c1ccc(C(CN)Cc2ccc(OCCOc3c(Cl)cc(C)cc3Cl)cc2)c(C)c1 (stereo not drawn) [Example 2, 3-{4-[2-(2,6-dichloro-4-methylphenoxy)ethoxy]phenyl}-2-[2′-(2-methoxyethyl)-3-methylbiphenyl-4-yl]propan-1-amine]	19.7 nM	1920 nM
Cc1cc(Cl)c(OCCOc2ccc(CC(CN)c3ccc(-c4ccccc4CCC(=O)N(C)C)cc3C)cc2)c(Cl)c1 (stereo not drawn) [Example 24, 3-[4′-(2-amino-1-{4-[2-(2,6-dichloro-4-methylphenoxy)ethoxy]benzyl}ethyl)-3′-methylbiphenyl-2-yl]-N—N-dimethylpropanamide]	30.8 nM	> 1110 nM
COc1cc(-c2ccccc2Cl)ccc1C(CN)Cc1ccc(OCCOc2c(Cl)cc(C)cc2Cl)cc1 (stereo not drawn) [Example 8, 2-(2′-chloro-3-methoxybiphenyl-4-yl)-3-{4-[2-(2,6-dichloro-4-methylphenoxy)ethoxy]phenyl}propan-1-amine]	47.6 nM	3620 nM
COCCCOc1ccccc1-c1ccc(C(CN)Cc2ccc(OCCOc3c(Cl)cc(C)cc3Cl)cc2)c(C)c1 (stereo not drawn) [Example 5, 3-{4-[2-(2,6-dichloro-4-methylphenoxy)ethoxy]phenyl}-2-[2′-(3-methoxypropoxy)-3-methylbiphenyl-4-yl]propan-1-amine]	1.7 nM	1160 nM
COCCCc1ccccc1-c1ccc(C(CN)Cc2ccc(OCCOc3c(Cl)cc(C)cc3Cl)cc2)c(C(F)(F)F)c1 (stereo not drawn) [Example 13, 3-{4-[2-(2,6-dichloro-4-methylphenoxy)ethoxy]phenyl}-2-[2′-(3-methoxypropyl)-3-(trifluoromethyl)biphenyl-4-yl]propan-1-amine]	0.9 nM	156 nM
Cc1cc(Cl)c(OCCOc2ccc(CC(CN)c3ccc(-c4ccccc4Cl)cc3C)cc2)c(Cl)c1 (stereo not drawn) [Example 1, 2-(2′-Chloro-3-methyl-biphenyl-4-yl)-3-{4-[2-(2,6-dichloro-4-methyl-phenoxy)-ethoxy]-phenyl}-propylamine]	6 nM	796 nM

Further lines, results first:

IC50 (human recombinant renin)	IC50 (renin in human plasma)	SMILES
285 nM	> 10000 nM	COCCCc1ccccc1-c1ccc(C(CN)Cc2cc(F)cc(F)c2)c(C)c1 (stereo not drawn) [Example 32, 3-(3,5-difluorophenyl)-2-[2′-(3-methoxypropyl)-3-methylbiphenyl-4-yl]propan-1-amine]
0.2 nM	643 nM	COCCCc1cccc(C)c1-c1ccc(C(CN)Cc2ccc(OCCOc3c(Cl)cc(C)cc3Cl)cc2)c(C)c1 (stereo not drawn) [Example 12, 3-{4-[2-(2,6-dichloro-4-methylphenoxy)ethoxy]phenyl}-2-[2′-(3-methoxypropyl)-3,6′-dimethylbiphenyl-4-yl]propan-1-amine]
1.1 nM	94.6 nM	COCCCc1ncccc1-c1ccc(C(CN)Cc2ccc(OCCOc3c(Cl)cc(C)cc3Cl)cc2)c(C)c1 (stereo not drawn) [Example 16, 3-{4-[2-(2,6-dichloro-4-methylphenoxy)ethoxy]phenyl}-2-{4-[2-(3-methoxypropyl)pyridin-3-yl]-2-methylphenyl}propan-1-amine]
16.3 nM	2320 nM	Cc1cc(Cl)c(OCCOc2ccc(CC(CN)c3ccc(-c4c(Cl)cccc4Cl)cc3C)cc2)c(Cl)c1 (stereo not drawn) [Example 39]
4.3 nM	103 nM	COCCCc1c(-c2ccc(C(CN)Cc3ccc(OCCOc4c(Cl)cc(C)cc4Cl)cc3)c(C)c2)ccc[n+]1[O-] (stereo not drawn) [Example 21, 3-{-4-[2-(2,6-dichloro-4-methylphenoxy)ethoxy]phenyl}-2-{4-[2-(3-methoxypropyl)-1-oxidopyridin-3-yl]-2-methylphenyl}propan-1-amine]
7.4 nM	1500 nM	COCCOc1ccccc1-c1ccc(C(CN)Cc2ccc(OCCOc3c(Cl)cc(C)cc3Cl)cc2)c(C)c1 (stereo not drawn) [Example 4, 3-{4-[2-(2,6-dichloro-4-methylphenoxy)ethoxy]phenyl}-2-[2′-(2-methoxyethoxy)-3-methylbiphenyl-4-yl]propan-1-amine]
10.6 nM	544 nM	Cc1cc(Cl)c(OCCOc2ccc(CC(CN)c3ccc(-c4ccccc4CCC#N)cc3C)cc2)c(Cl)c1 (stereo not drawn) [Example 14, 3-[4′-(2-amino-1-{4-[2-(2,6-dichloro-4-methylphenoxy)ethoxy]benzyl}ethyl)-3′-methylbiphenyl-2-yl]propanenitrile]
44.4 nM		Cc1cc(Cl)c(OCCOc2ccc(CC(CN)c3ccc(-c4ccccc4Cl)cc3)cc2)c(Cl)c1 (stereo not drawn) [Example 6, 2-(2′-chlorobiphenyl-4-yl)-3-{4-[2-(2,6-dichloro-4-methylphenoxy)ethoxy]phenyl}propan-1-amine]
0.4 nM	116 nM	COCCCc1ccccc1-c1ccc(C(CN)Cc2ccc(OCCOc3c(Cl)cc(C)cc3Cl)cc2)c(C)c1 (stereo not drawn) [Example 3, 3-{4-[2-(2,6-dichloro-4-methylphenoxy)ethoxy]phenyl}-2-[2′-(3-methoxypropyl)-3-methylbiphenyl-4-yl]propan-1-amine]
	9.6 nM	CC(=O)NCCc1ccccc1-c1ccc(C(CN)Cc2ccc(OCCOc3c(Cl)cc(C)cc3Cl)cc2)c(C)c1 (stereo not drawn) [Example 30, 2-{2′-[2-(acetylamino)ethyl]-3-methylbiphenyl-4-yl}-3-{4-[2-(2,6-dichloro-4-methylphenoxy)ethoxy]phenyl}propan-1-aminium chloride]
0.5 nM	764 nM	Cc1cc(Cl)c(OCCOc2ccc(CC(CN)c3ccc(-c4ccccc4Cl)cc3Cl)cc2)c(Cl)c1 (stereo not drawn) [Example 10, 2-(2′,3-dichlorobiphenyl-4-yl)-3-{4-[2-(2,6-dichloro-4-methylphenoxy)ethoxy]phenyl}propan-1-amine]
